The series can be described thus: Human HepG2 cell viability assay in 384 well format. Details: dose 125 nL, time 70.5 hour; concentration not given beside the values. It counts as toxicity, cell-based. Conditions: HepG2 cells, read-out: Inhibition.

Here are results for 101 molecules from ChEMBL document CHEMBL3507680, “University of Dundee, Gates Library screen for HepG2 cell viability”.

For `c1cc(CCNc2ccc(CC3CCNC3)cn2)ccn1` (stereo unspecified), the cytotoxicity at 70.5 h was -4.08%.
The value for `CNC(=O)c1ccc(C2CN(CC(=O)N(C)C)CCO2)nc1` (stereo unspecified) was -5.57%; that for `CNC(=O)c1ccc(C2CN(Cc3ccc(F)cc3)CCO2)nc1` (stereo unspecified) was -1.99%.
The value for `CCN1CCC(N2CCC(c3nc(C)cc(C)n3)C2)CC1` (stereo unspecified) was -2.1%; that for `O=C(O)c1ccccc1-n1cnc(CN2CCCc3ccccc32)c1` was -2.75%; that for `c1cc2cc[nH]c2c(CC2CN(Cc3cscn3)C2)n1` was -3.59%.
The value for `COCC(=O)NC(CC(C)C)c1nc2cccnc2n1C` (stereo unspecified) was 20.7%; that for `Cc1cc2nccc(C3CCCN(C(=O)c4ccccc4F)C3)n2n1` (stereo unspecified) was -1.93%.
With `O=C(Cc1ccc(F)c(F)c1)NC1COc2ccccc2C1=O` (stereo unspecified), the cytotoxicity at 70.5 h was -0.695%.
With `CC(O)CN1CCN(Cc2cccc(C#N)c2)CC1` (stereo unspecified) the figure was -4.63%; with `Cc1nn(C)c(C)c1NC(=O)CNC(c1ccccc1)C1CCC1` (stereo unspecified), -4.47%.
With `Cc1cnn(CCNCc2nccn2Cc2ccccc2)c1` the figure was 1.16%.
With `COC(=O)CC(NC(=O)c1cccc(N2CCCC2=O)c1)C(=O)OC` (stereo unspecified) the figure was 0.259%; with `COCCNc1nc(-c2ccc(S(=O)(=O)N3CCCCC3)cc2)cs1`, 0.097%.
On to `Cn1cnnc1S(=O)(=O)Cc1cc(Cl)c2c(c1)OCCO2`, for which the cytotoxicity at 70.5 h is -1.41%.
With `COC(=O)CC(NC(=O)c1cccc(CS(C)(=O)=O)c1)c1cccs1` (stereo unspecified), the cytotoxicity at 70.5 h is -4.71%.
For `Cc1ccc(-c2nc(CC(=O)N3CCCC(NC(=O)C(C)C)C3)cs2)o1` (stereo unspecified), the cytotoxicity at 70.5 h is -4.05%.
The value for `Cc1ccc(-c2nc(CC(=O)NCC(C)N3CCOCC3)cs2)o1` (stereo unspecified) was -3.4%; that for `Cn1ccnc1Sc1ncc(C(=O)N2CCCCC2)cc1Cl` was -4.57%; that for `CCNC(=O)c1cnc(Sc2nccn2C)c(Cl)c1` was -2.03%.
With `O=C(c1cn(-c2ccc(C(F)(F)F)cn2)nn1)N1CCCCCC1` the figure was -3.98%; with `CC1CCN(C(=O)c2cn(-c3ccc(C(F)(F)F)cn3)nn2)CC1`, -0.268%.
The value for `CCc1ccc2c(c1)C(CCNC(=O)CSC(F)(F)F)C(=O)N2` (stereo unspecified) was -1.42%; that for `Cc1ccccc1CNc1ccc(S(N)(=O)=O)c(C(F)(F)F)c1` was 4.82%.
Take `Cc1ccc(C(=O)N2CCCC(N(C)C(=O)OC(C)(C)C)C2)o1` (stereo unspecified): the cytotoxicity at 70.5 h came out at 2.04%.
With `CC(c1ccccc1F)N(C(=O)CSCC(N)=O)C1CC1` (stereo unspecified) the figure was 5.29%; with `Cc1cc(NC(=O)c2ccc(N3CCOCC3)cc2)[nH]n1`, -1.56%.
With `Cc1nc(CNC(=O)CCCc2cccs2)no1` the figure was -5.14%; with `CC(=O)Nc1cc(F)c(S(=O)(=O)N(C)CC2CCC2)c(F)c1`, -0.0857%.
`CCOc1cccc(CNC(=O)C(C)(C)C#N)c1OC(F)F`: the cytotoxicity at 70.5 h is -2.64%.
Turning to `CN(C(=O)OC(C)(C)C)C1CCN(C(=O)c2ccc(Cl)o2)C1` (stereo unspecified), the cytotoxicity at 70.5 h is -3.64%.
For `C=C(C)CN(CC)S(=O)(=O)c1c(F)cc(NC(C)=O)cc1F`, the cytotoxicity at 70.5 h was -3.3%.
With `COCCNc1nc(-c2ccc(S(=O)(=O)N3CCCCCC3)cc2)cs1` the figure was -5.83%; with `CC(C)N1CCCC(CNC(=O)Cc2csc(-c3cccnc3)n2)C1` (stereo unspecified), -0.239%; with `CC(C#N)CN(C)Cc1c(Cl)ccc2cccnc12` (stereo unspecified), 23%.
Consider `Cc1nc(-c2cccs2)ccc1C(=O)N1CCN(CC(C)O)CC1` (stereo unspecified), for which the cytotoxicity at 70.5 h was -2.84%.
The value for `CCn1cc(NC(=O)N2CCN(CCSc3ccccc3)CC2)cn1` was -7.68%; that for `O=C(CSc1nnc(N2CCCC2)s1)NC(=O)Nc1ccccc1` was -5.54%; that for `Cc1nnc2n1CCN(C(=O)c1ccc(Cn3cccc3)cc1)C2` was -7.82%.
The value for `Cc1ccc(NC(=O)N2CCC(CO)(Nc3ccccc3)CC2)cc1` was 17.1%; that for `Cc1cccc(NC(=O)N2CCC(CO)(Nc3ccccc3)CC2)c1` was -5.03%; that for `O=C1NCCN1C1CCN(CC(O)c2ccccc2F)CC1` (stereo unspecified) was -7.23%.
The value for `Cc1ncccc1C(=O)Nc1cccc(C[S+](C)[O-])c1C` (stereo unspecified) was 0.697%; that for `Cc1cc(C)c2ncc(C#N)c(NC3CCN(CC(N)=O)CC3)c2c1` was 1.44%.
Regarding `CC(NC(=O)N1CCS(=O)(=O)CC1)c1c(F)cccc1Cl` (stereo unspecified), the cytotoxicity at 70.5 h is -4.16%.
The value for `O=C(Cc1c[nH]c2ncccc12)NCC(O)c1ccccc1F` (stereo unspecified) was 15.1%; that for `CC(C)(CO)N1CCN(S(=O)(=O)CCCF)CC1` was -8.05%; that for `CN(CCOc1cccc(F)c1)CC(=O)Nc1ccncc1` was -10.9%.
The value for `CN(Cc1nnc(C2CC2)o1)Cc1ccccc1-c1ccccc1` was -9.25%; that for `CN1CCN(C2CCN(CC(O)c3ccccc3)CC2)C1=O` (stereo unspecified) was 4.73%; that for `Cc1cc(CN2CCCN(c3ccc(C#N)cc3)CC2)no1` was -7.74%.
Take `Cc1ccc(S(=O)(=O)N[C@H](CO)C(C)C)cc1N(C)C`: the cytotoxicity at 70.5 h is -4.66%.
With `Cc1nccn1-c1ccc(NS(=O)(=O)c2cnn(C(C)C)c2)cn1` the figure was -2.54%; with `N#Cc1ncn(Cc2c(F)cccc2Cl)n1`, -5.34%; with `CNc1nnc(SCc2nnc(C(C)(C)C)o2)s1`, 15.4%.
With `CCNc1nnc(SCc2nnc(C(C)(C)C)o2)s1` the figure was -8.88%; with `O=C(CS(=O)(=O)Cc1csc(-c2ccc(F)cc2)n1)NCC1CC1`, -6.8%; with `O=C(Nc1cccnc1N1CCSCC1)c1ccc2c(c1)OCO2`, -4.23%.
The value for `NC(=O)CS(=O)(=O)Cc1csc(-c2ccc(F)cc2)n1` was 13.6%; that for `CS(=O)(=O)c1cc(C(=O)NS(=O)(=O)Cc2ccc(F)cc2)ccc1Cl` was -3.9%.
For `CC(C)C(=O)Nc1cccc(OCC(=O)NCc2ccccc2F)c1`, the cytotoxicity at 70.5 h is -5.29%.
With `OCCOc1cc(F)ccc1NCc1ccc(F)c(F)c1` the figure was -2.79%; with `Cc1nnc2n1CCN(C(=O)C1CCN(Cc3ccccc3)CC1)C2`, 14.2%.
With `CN(CC(N)=O)Cc1csc(-c2ccc(F)cc2)n1` the figure was -0.0734%.
With `Cc1nccn1-c1ccc(NS(=O)(=O)c2cnn(C)c2)cn1` the figure was -4.84%; with `CNC(=O)CN(C)C1CCN(c2ccc(Cl)cc2)CC1`, 2.05%; with `O=C(NS(=O)(=O)c1ccc(F)c(F)c1)c1cscn1`, 17.8%.
`CC(C)CCc1noc(CN2CCCC(CNS(N)(=O)=O)C2)n1` (stereo unspecified): the cytotoxicity at 70.5 h is -1.48%.
With `CC(C)Cc1noc(CN2CCCC(CNS(N)(=O)=O)C2)n1` (stereo unspecified) the figure was -3.24%; with `CCc1nc(CN2CCCN(C(=O)Cc3cccs3)CC2)cs1`, -6.45%.
The value for `CCOc1ccc(CNC2CCCN(c3cccnn3)C2)cc1OC` (stereo unspecified) was 4.96%; that for `CCCNC(=O)CN(C)C1CCN(c2ccc(Cl)cc2)CC1` was -6.78%.
With `COc1cc2c(nn1)CCN(Cc1noc(CC(C)C)n1)C2` the figure was -4.19%; with `CC(C)Oc1cccc(CN(C)C(=O)Nc2cccn(C)c2=O)c1`, 2.82%; with `O=C(CCC1CCCO1)NCCN1CCCCC1` (stereo unspecified), -3.64%.
Regarding `COCCNC(=O)N1CCOCC1c1c(C)nn(C)c1C` (stereo unspecified), the cytotoxicity at 70.5 h was -1.43%.
With `O=S(=O)(Cc1nc(C2CC2)no1)c1cc(F)ccc1F` the figure was -12.2%.
The value for `O=C(NCc1ccc(N2CCSCC2)cc1)NCc1cc[nH]n1` was -10.4%; that for `O=C(Nc1cccc(F)c1)NC1CCN(Cc2ccncc2)CC1` was -15.3%.
The value for `CN(C)c1ccc(C(=O)Nc2cnn(Cc3ccccn3)c2)cc1` was -9.41%.
Regarding `CC(Oc1cccc(Cl)c1)C(=O)Nc1cnn(CCN(C)C)c1` (stereo unspecified), the cytotoxicity at 70.5 h came to 23.7%.
With `CN(C)c1cccc(C(=O)Nc2cnn(CC(N)=O)c2)c1` the figure was -16.4%; with `Cc1ccc(-c2nc(C(=O)N(C)CC(=O)N3CCCC3)cs2)c(C)c1`, -4.38%.
With `CN(C)c1cccc(C(=O)Nc2cnn(Cc3ccccn3)c2)c1` the figure was -9.4%; with `CCCN(CCC)C(=O)CN1CCCC1C(=O)N(C)C` (stereo unspecified), -5.85%; with `CC(=O)NCc1ccc(C(=O)N2CCCc3c(F)ccc(C)c32)cc1`, -8.8%.
For `CN(c1ncc(S(N)(=O)=O)s1)C1CCC1`, the cytotoxicity at 70.5 h was -9.06%.
As for `CCS(=O)(=O)NCC(=O)N(C1CC1)C1Cc2ccccc2C1`, the cytotoxicity at 70.5 h was -9.21%.
The value for `Cc1nn(C)c(C)c1C1COCCN1C(=O)CC(C)(C)C` (stereo unspecified) was 24.2%.
With `Cc1noc(CN(C)c2ccccc2)n1` the figure was -13.6%; with `COc1cccc(-c2nc(CNCCc3cccnc3)cs2)c1`, -19.3%; with `CCN1CC(CN(C)c2cc(C)nc(N)n2)Oc2ccccc21` (stereo unspecified), 17.6%.
Regarding `CC(=O)c1cccc(OC(C)C(=O)Nc2cnn(CCN(C)C)c2)c1` (stereo unspecified), the cytotoxicity at 70.5 h is -12.3%.
The value for `CCSc1cc(C(=O)N(Cc2cnn(C)c2)C(C)C)ccn1` was -11.4%; that for `CCC(CNC(=O)COC)Oc1cccc(F)c1` (stereo unspecified) was 14.9%; that for `COc1ccc(C)cc1C(C)NS(=O)(=O)c1ccc2c(c1)CCC(=O)N2` (stereo unspecified) was 8.83%.
With `CCN(CC1CCOC1)C(=O)Cn1nnn(-c2cccs2)c1=O` (stereo unspecified) the figure was -15.9%; with `O=C(Cn1nnn(-c2cccs2)c1=O)NCC1CCOC1` (stereo unspecified), 11.8%; with `Cc1cc(C)c(CNC(=O)NCCNc2ncccn2)c(=O)[nH]1`, -12.7%.
Regarding `CC(CC(=O)N1CCN(c2cnccn2)CC1)c1ccc(F)cc1` (stereo unspecified), the cytotoxicity at 70.5 h amounted to 0.499%.
With `Cc1nc2c(C#N)cnn2c(C)c1CCC(=O)N(C)C(C)C(C)C` (stereo unspecified) the figure was -11.8%.
